Measured values: the supplement of paper PMC10307832

Columns and labels:
Assay in all cases: relative viability (nuclei count vs DMSO), 5 days (fraction); higher = more cells survive
CUDC-101 + Navitoclax = compound: C#Cc1cccc(Nc2ncnc3cc(OC)c(OCCCCCCC(=O)NO)cc23)c1 [CUDC-101] + CC1(C)CCC(c2ccc(Cl)cc2)=C(CN2CCN(c3ccc(C(=O)NS(=O)(=O)c4ccc(N[C@H](CCN5CCOCC5)CSc5ccccc5)c(S(=O)(=O)C(F)(F)F)c4)cc3)CC2)C1 [Navitoclax] (partner 0.5 µM)
Method in brief: (§1)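 Lung cancer cell lines were seeded in 1536-well plates and dosed by pin tool the next day, with either a single drug or a fixed anchor-drug dose combined with five library-drug doses (not always all listed) spaced in √10 steps. Five days later, one step fixed the cells and stained their nuclei (final 0.05% Triton X-100, 1% formaldehyde, 1 ug/ml Hoechst), and nuclei were counted on 4× images. Relative viability is the nuclei count in treated wells divided by the count in vehicle wells, and each value is the median of duplicate plates.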

[1] = compound: C1=CC=C2C(=C1)N=C(S2)C(C#N)C3=NC(=NC=C3)NCCC4=CN=CC=C4 + CCNC(=O)c1noc(-c2cc(C(C)C)c(O)cc2O)c1-c1ccc(CN2CCOCC2)cc1 [Luminespib] (partner 0.01 µM)
Method in brief: as §1

Vandetanib + Navitoclax = compound: COc1cc2/c(=N/c3ccc(Br)cc3F)nc[nH]c2cc1OCC1CCN(C)CC1 [Vandetanib] + CC1(C)CCC(c2ccc(Cl)cc2)=C(CN2CCN(c3ccc(C(=O)NS(=O)(=O)c4ccc(N[C@H](CCN5CCOCC5)CSc5ccccc5)c(S(=O)(=O)C(F)(F)F)c4)cc3)CC2)C1 [Navitoclax] (partner 0.5 µM)
Method in brief: as §1

Vandetanib + Bortezomib = compound: COc1cc2/c(=N/c3ccc(Br)cc3F)nc[nH]c2cc1OCC1CCN(C)CC1 [Vandetanib] + CC(C)C[C@H](NC(=O)[C@H](Cc1ccccc1)NC(=O)c1cnccn1)B(O)O [Bortezomib] (partner 0.002 µM)
Method in brief: as §1

Cell Line | relative viability (CUDC-101 + Navitoclax; first compound 0.01 µM) | relative viability (CUDC-101 + Navitoclax; first compound 0.03162 µM) | relative viability (CUDC-101 + Navitoclax; first compound 0.1 µM) | relative viability (CUDC-101 + Navitoclax; first compound 0.3162 µM) | relative viability (CUDC-101 + Navitoclax; first compound 1 µM) | relative viability ([1]; first compound 0.005 µM) | relative viability ([1]; first compound 0.01581 µM) | relative viability ([1]; first compound 0.05 µM) | relative viability ([1]; first compound 0.1581 µM) | relative viability ([1]; first compound 0.5 µM) | relative viability (Vandetanib + Navitoclax; first compound 0.02 µM) | relative viability (Vandetanib + Navitoclax; first compound 0.06325 µM) | relative viability (Vandetanib + Navitoclax; first compound 0.2 µM) | relative viability (Vandetanib + Navitoclax; first compound 0.6325 µM) | relative viability (Vandetanib + Navitoclax; first compound 2 µM) | relative viability (Vandetanib + Bortezomib; first compound 0.02 µM) | relative viability (Vandetanib + Bortezomib; first compound 0.06325 µM) | relative viability (Vandetanib + Bortezomib; first compound 0.2 µM) | relative viability (Vandetanib + Bortezomib; first compound 0.6325 µM) | relative viability (Vandetanib + Bortezomib; first compound 2 µM)
NCI-H2405 | 1.12 | 0.842 | 0.953 | 1.17 | 0.665 | 0.708 | 0.638 | 0.654 | 0.655 | 0.809 | 0.786 | 0.426 | 0.889 | 1.23 | 0.696 | 0.96 | 0.9 | 0.985 | 0.948 | 1
NCI-H2170 | 0.628 | 0.636 | 0.648 | 0.599 | 0.313 | 0.702 | 0.803 | 0.621 | 1.01 | 0.894 | 0.621 | 0.618 | 0.565 | 0.567 | 0.502 |  |  |  |  | 
NCI-H1623 |  |  |  |  |  | 0.932 | 0.466 | 0.508 | 0.322 | 0.346 |  |  |  |  |  |  |  |  |  | 
A549 | 1.34 | 1.12 | 1.19 | 1.2 | 1.15 |  |  |  |  |  | 1.12 | 1.23 | 1.12 | 1.08 | 1.22 |  |  |  |  | 
NCI-H661 |  |  |  |  |  | 0.902 | 0.917 | 0.918 | 0.926 | 0.933 |  |  |  |  |  | 0.828 | 0.943 | 0.769 | 0.807 | 0.702
Calu-6 | 0.93 | 1.1 | 0.848 | 0.82 | 0.624 |  |  |  |  |  | 0.891 | 0.761 | 0.973 | 0.895 | 0.734 | 1.15 | 0.933 | 1.09 | 0.959 | 0.941
NCI-H1703 | 0.968 |  | 1.21 | 1.59 | 0.794 |  |  |  |  |  | 1.15 |  | 1.27 | 0.575 | 0.256 | 0.379 |  | 0.374 | 0.31 | 0.245
SK-MES-1 | 1.27 | 1.37 | 1.28 | 1.16 | 1.12 | 1.16 | 0.937 | 0.669 | 0.962 | 0.85 | 1.26 | 1.04 | 1.24 | 1.27 | 1.2 |  |  |  |  | 
NCI-H1299 | 1.05 | 0.992 | 1.12 | 1.06 | 1.02 |  |  |  |  |  | 1 | 1.01 | 1.05 | 1.08 | 1.03 | 0.997 | 0.976 | 1.02 | 1.05 | 1.04
NCI-H358 |  |  |  |  |  | 0.248 | 0.465 | 0.296 | 0.475 | 0.185 |  |  |  |  |  |  |  |  |  | 
NCI-H1395 | 1.26 | 1.13 | 1.46 | 1.75 | 0.991 | 0.878 | 0.641 | 0.822 | 0.679 | 0.819 | 1.11 | 1.06 | 1.04 | 1.25 | 1.29 |  |  |  |  | 
LK-2 | 0.927 | 0.826 | 0.819 | 0.741 | 0.415 | 0.206 | 0.181 | 0.209 | 0.176 | 0.194 | 0.761 | 0.759 | 0.913 | 0.936 | 0.721 |  |  |  |  | 
HCC-78 | 0.76 | 0.706 | 0.846 | 0.684 | 0.391 |  |  |  |  |  | 0.732 | 0.649 | 0.828 | 0.887 | 0.573 | 0.618 | 0.6 | 0.511 | 0.668 | 0.383
SW 900 |  |  |  |  |  | 0.164 | 0.205 | 0.175 | 0.197 | 0.179 |  |  |  |  |  |  |  |  |  | 
NCI-H650 |  |  |  |  |  | 0.784 |  | 0.724 | 0.825 | 0.863 |  |  |  |  |  | 0.757 | 0.877 | 0.705 | 0.862 | 0.596
NCI-H522 |  |  |  |  |  | 1.07 | 1.05 | 1.12 | 1.15 | 1.12 |  |  |  |  |  |  |  |  |  | 
NCI-H1793 | 0.426 | 0.319 | 0.417 | 0.406 | 0.35 | 0.16 | 0.141 | 0.182 | 0.158 | 0.22 | 0.57 | 0.338 | 0.488 | 0.319 | 0.389 |  |  |  |  | 
IA-LM | 0.685 | 0.806 | 0.698 | 0.832 | 0.281 |  |  |  |  |  | 0.648 | 0.661 | 0.878 | 1.1 | 1.29 | 0.727 | 0.831 | 1.01 | 1.06 | 0.953
HCC-366 | 1.1 | 0.875 | 1.06 | 1.08 | 0.844 |  |  |  |  |  | 1.09 | 1 | 1.06 | 1.06 | 1.05 | 1.05 | 0.983 | 0.867 | 0.909 | 1.02
LCLC-103H |  |  |  |  |  | 0.773 | 0.854 | 0.905 | 0.944 | 0.96 |  |  |  |  |  | 1.09 | 0.966 | 1.05 | 1.05 | 0.924
ABC-1 |  |  |  |  |  |  | 0.736 | 0.374 | 0.855 | 0.737 |  |  |  |  |  | 0.304 | 0.3 | 0.287 | 0.406 | 0.244
